Reference: ChEMBL document CHEMBL1126964, “Antibacterial activity of long-chain alcohols: the role of hydrophobic alkyl groups” (1993)
In brackets after ≈: the same amount, converted by molar mass.

Experiments:
[1] = test system: Staphylococcus aureus; assay: Minimum inhibitory concentration against Staphylococcus aureus was determined; format: functional
[2] = test system: Cutibacterium acnes; assay: Minimum inhibitory concentration against Propionibacterium acnes was determined; format: functional

| SMILES | MIC [1] [µg/mL] | MIC [2] [µg/mL] |
| --- | --- | --- |
| CC(C)=CCC/C(C)=C/CCC(C)O (stereo not given) | 50 (≈ 255 µM) | 25 (≈ 127 µM) |
| C=CC(C)(O)CCC=C(C)C (stereo not given) [LINALOOL] | > 800 | > 800 |
| CCCCCCCCCCCCCCCCCCO [CETOSTEARYL ALCOHOL] | > 800 | > 800 |
| CCCCCCCCCO [NONANOL] | 200 (≈ 1390 µM) | 100 (≈ 693 µM) |
| CCCCCCCCCCCCCCCO | > 800 | 0.78 (≈ 3.41 µM) |
| CCCCCCCO [1-HEPTANOL] | > 800 | 400 (≈ 3440 µM) |
| CC(C)=CCC/C(C)=C/CC/C(C)=C/CCC(C)O (stereo not given) | > 800 | 1.56 (≈ 5.9 µM) |
| CCCCCCCCCCCCCCCCO [CETYL ALCOHOL] | > 800 | 0.78 (≈ 3.22 µM) |
| CCCCCCCCCCCCCCO [MYRISTYL ALCOHOL] | > 800 | 1.56 (≈ 7.28 µM) |
| CCCCCCCCCCCCCO [TRIDECAN-1-OL] | > 800 | 1.56 (≈ 7.79 µM) |
| CCCCCCO [1-HEXANOL] | > 800 | > 800 |
| CC(C)=CCC/C(C)=C/CC/C(C)=C/CO [FARNESOL] | 6.25 (≈ 28.1 µM) | 6.25 (≈ 28.1 µM) |

The remaining lines, values ahead:

| MIC [1] [µg/mL] | MIC [2] [µg/mL] | SMILES |
| --- | --- | --- |
| 800 (≈ 5190 µM) | 400 (≈ 2590 µM) | CC(C)=CCC/C(C)=C/CO [GERANIOL] |
| 50 (≈ 316 µM) | 25 (≈ 158 µM) | CCCCCCCCCCO [DECANOL] |
| 50 (≈ 225 µM) | 25 (≈ 112 µM) | C=CC(C)(O)CC/C=C(\C)CCC=C(C)C (stereo not given) [NEROLIDOL] |
| > 800 | > 800 | CCCCCCCCCCCCCCCCCCCCO [1-EICOSANOL] |
| > 800 | > 800 | CCCCCCCCCCCCCCCCCO |
| 800 (≈ 6140 µM) | 200 (≈ 1540 µM) | CCCCCCCCO [OCTANOL] |
| 6.25 (≈ 33.5 µM) | 3.13 (≈ 16.8 µM) | CCCCCCCCCCCCO [DODECANOL] |
| 25 (≈ 145 µM) | 12.5 (≈ 72.5 µM) | CCCCCCCCCCCO [UNDECANOL] |
